According to ChEMBL document CHEMBL3585347, “Isolation of cholinesterase and β-secretase 1 inhibiting compounds from Lycopodiella cernua” (Bioorg Med Chem, 2015):
The source made the active and inactive calls. The calls are words filed in the database; no cut-off is given here.

Legend:
[1] = biological target: T1, Acetylcholinesterase (Homo sapiens, UniProt P22303); assay: Inhibition of AChE (unknown origin) using acetylthiocholine as substrate assessed as substrate hydrolysis by spectrophotometric/Ellman method
[2] = biological target: T2, Cholinesterase (Homo sapiens, UniProt P06276); assay: Inhibition of BChE (unknown origin) using butyrylthiocholine as substrate assessed as substrate hydrolysis by spectrophotometric/Ellman method
[3] = biological target: Beta-secretase 1 (Homo sapiens, UniProt P56817); assay: Inhibition of human recombinant BACE1 by fluorescence resonance energy transfer (FRET) assay
[4] = biological target: T2, Cholinesterase; assay: Inhibition of BChE (unknown origin) by Dixon plot analysis
[5] = biological target: T2, Cholinesterase; assay: Mixed type inhibition of BChE (unknown origin) by Lineweaver-Burk plot analysis
[6] = biological target: T1, Acetylcholinesterase; assay: Inhibition of AChE (unknown origin) by Dixon plot analysis
[7] = biological target: T1, Acetylcholinesterase; assay: Mixed type inhibition of AChE (unknown origin) by Lineweaver-Burk plot analysis

Sequence of Beta-secretase 1 (P56817 whole entry): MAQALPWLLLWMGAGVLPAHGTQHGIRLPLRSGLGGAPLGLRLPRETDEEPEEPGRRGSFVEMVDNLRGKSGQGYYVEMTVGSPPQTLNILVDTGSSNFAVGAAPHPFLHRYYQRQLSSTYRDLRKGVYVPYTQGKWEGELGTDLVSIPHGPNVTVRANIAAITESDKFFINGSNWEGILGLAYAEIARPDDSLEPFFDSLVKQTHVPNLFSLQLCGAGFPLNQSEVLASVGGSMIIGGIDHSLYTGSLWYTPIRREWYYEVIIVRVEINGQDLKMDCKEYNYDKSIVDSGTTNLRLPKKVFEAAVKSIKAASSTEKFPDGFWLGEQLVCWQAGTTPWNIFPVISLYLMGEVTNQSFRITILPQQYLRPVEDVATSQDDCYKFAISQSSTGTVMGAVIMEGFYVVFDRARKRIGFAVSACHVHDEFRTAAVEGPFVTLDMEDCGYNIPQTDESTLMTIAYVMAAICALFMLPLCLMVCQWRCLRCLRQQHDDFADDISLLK
T2 sequence (P06276 whole entry): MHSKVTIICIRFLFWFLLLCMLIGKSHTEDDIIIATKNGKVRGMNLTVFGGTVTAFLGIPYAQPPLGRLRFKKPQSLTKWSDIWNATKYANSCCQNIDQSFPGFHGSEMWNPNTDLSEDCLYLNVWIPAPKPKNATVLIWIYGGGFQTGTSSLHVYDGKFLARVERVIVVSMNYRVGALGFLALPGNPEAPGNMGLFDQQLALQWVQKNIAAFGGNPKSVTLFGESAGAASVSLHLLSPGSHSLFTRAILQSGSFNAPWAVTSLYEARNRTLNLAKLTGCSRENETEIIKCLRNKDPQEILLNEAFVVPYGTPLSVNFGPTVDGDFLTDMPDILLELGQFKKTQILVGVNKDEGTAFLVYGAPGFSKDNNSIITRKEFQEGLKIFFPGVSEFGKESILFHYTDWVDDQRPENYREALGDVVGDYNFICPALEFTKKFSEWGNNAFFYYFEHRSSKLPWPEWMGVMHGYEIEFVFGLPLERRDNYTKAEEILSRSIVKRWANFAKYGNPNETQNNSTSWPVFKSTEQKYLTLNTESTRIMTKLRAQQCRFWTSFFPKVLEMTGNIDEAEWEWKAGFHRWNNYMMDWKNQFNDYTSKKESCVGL
T1 sequence (P22303 whole entry): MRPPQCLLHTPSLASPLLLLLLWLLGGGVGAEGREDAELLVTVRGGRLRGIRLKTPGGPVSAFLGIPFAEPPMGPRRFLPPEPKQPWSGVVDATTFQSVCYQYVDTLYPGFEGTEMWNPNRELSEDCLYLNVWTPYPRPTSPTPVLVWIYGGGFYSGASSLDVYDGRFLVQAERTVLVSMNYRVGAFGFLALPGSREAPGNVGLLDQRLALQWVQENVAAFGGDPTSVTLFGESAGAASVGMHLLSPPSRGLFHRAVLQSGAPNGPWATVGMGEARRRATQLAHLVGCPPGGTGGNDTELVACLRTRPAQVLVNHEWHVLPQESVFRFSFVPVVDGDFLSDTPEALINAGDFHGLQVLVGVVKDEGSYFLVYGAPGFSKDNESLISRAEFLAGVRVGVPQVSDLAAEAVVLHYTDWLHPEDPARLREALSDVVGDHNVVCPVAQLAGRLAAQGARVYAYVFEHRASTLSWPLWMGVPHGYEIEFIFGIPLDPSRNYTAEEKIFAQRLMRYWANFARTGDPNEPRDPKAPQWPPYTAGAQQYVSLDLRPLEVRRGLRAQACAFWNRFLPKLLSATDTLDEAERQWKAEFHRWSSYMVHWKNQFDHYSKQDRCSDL

Row | SMILES | IC50 [1] [µM] | IC50 [2] [µM] | IC50 [3] [µM] | Ki [4] [µM] | inhibition [5] | Ki [6] [nM] | inhibition [7]
1 | CC1(C)[C@H](O)CC[C@@]2(C)[C@H]1CC[C@@]1(C)CC3=CC[C@H]4C(C)(C)[C@H](O)CC[C@]4(C)[C@H]3CC[C@@H]12 | > 30 | > 30 | > 10 | – | – | – | –
2 | CC1(C)C(=O)CC[C@@]2(C)[C@H]1CC[C@@]1(C)CC3=CC(=O)[C@H]4C(C)(C)[C@H](O)CC[C@]4(C)[C@H]3CC[C@@H]12 | 10.7 | > 30 | 0.23 | 4.78 | Active | – | –
3 | C[C@@]12CC[C@@H]3[C@](C)(CC[C@H](OC(=O)c4ccc(O)cc4)[C@]3(C)C(=O)O)[C@H]1CC[C@@H]1[C@@]3(C)CC[C@@H](O)[C@](C)(CO)[C@@H]3C[C@H](O)[C@@]1(O)C2 | > 30 | > 30 | 0.31 | – | – | – | –
4 | COc1ccc(C(=O)O[C@H]2CC[C@@]3(C)[C@@H](CC[C@@]4(C)C[C@@]5(O)[C@H](CC[C@@H]43)[C@@]3(C)CC[C@@H](O)C(C)(C)[C@@H]3C[C@@H]5O)[C@@]2(C)C(=O)O)cc1O | 9.98 | > 30 | 0.98 | – | – | – | –
5 | CC1(C)[C@@H](O)CC[C@@]2(C)[C@H]1CC[C@@]1(C)C[C@@]3(O)CC[C@H]4C(C)(C)[C@@H](O)CC[C@]4(C)[C@H]3CC[C@@H]12 | > 30 | > 30 | > 10 | – | – | – | –
6 | CCCC[C@@H](O)/C=C/C=C/C(=O)O | 0.22 | > 30 | 6.91 | – | – | 1170 | Active
7 | CC1(C)[C@H](O)CC[C@]2(C)[C@H]3CC[C@H]4[C@@](C)(CC[C@@H]5[C@]4(C)CC[C@@H](O)[C@]5(C)C(=O)O)CC3=CC(=O)[C@@H]12 | > 30 | > 30 | > 10 | – | – | – | –
8 | C[C@@]12CC[C@@H]3[C@](C)(CC[C@H](O)[C@]3(C)C(=O)O)[C@H]1CC[C@H]1C(=CC(=O)[C@@H]3[C@]1(C)CC[C@@H](O)[C@]3(C)CO)C2 | > 30 | > 30 | > 10 | – | – | – | –
9 | CC1(C)[C@H](O)CC[C@@]2(C)[C@H]1CC[C@@]1(C)CC3=CC[C@H]4C(C)(C)[C@@H](O)CC[C@]4(C)[C@H]3CC[C@@H]12 | > 30 | 1.37 | > 10 | 4.88 | Active | – | –
10 | C[C@@]12CC[C@@H]3[C@](C)(CC[C@H](OC(=O)CCc4ccc(O)cc4)[C@]3(C)C(=O)O)[C@H]1CC[C@H]1C(=CC[C@@H]3[C@]1(C)CC[C@@H](O)[C@]3(C)CO)C2 | 1.69 | 0.42 | > 10 | 0.99 | – | 7970 | Active
11 | COC(=O)[C@]1(C)[C@@H]2CC[C@@]3(C)CC4=CC(=O)[C@@H]5[C@](C)(CC[C@@H](O)[C@]5(C)CO)[C@H]4CC[C@@H]3[C@@]2(C)CC[C@@H]1O [LYCERNUIC KETONE A] | > 30 | > 30 | > 10 | – | – | – | –
12 | C[C@@]12CC[C@@H]3[C@](C)(CC[C@H](OC(=O)/C=C/c4ccc(O)cc4)[C@]3(C)C(=O)O)[C@H]1CC[C@H]1C(=CC[C@@H]3[C@]1(C)CC[C@@H](O)[C@]3(C)CO)C2 | > 30 | > 30 | 1.07 | – | – | – | –
13 | CC(=O)O[C@H]1CC[C@@]2(C)[C@@H](CC[C@@]3(C)C[C@@]4(O)CC[C@H]5C(C)(C)[C@@H](OC(C)=O)CC[C@]5(C)[C@H]4CC[C@@H]32)C1(C)C | 0.91 | > 30 | > 10 | – | – | 2490 | Active
